Reference: patent publication US11572296B1, “Method for extending time of activity of chlorite-based biocides” (priority 2020, dated 2023)

Tests used:
bacteria [1] = test: Antimicrobial activity of oxychloro species (general properties); settings: treated water, component of the formulation
Description: The potency and longevity of biocidal activity for this formulation is controlled by varying the ratios of chlorate and acid which provide different profiles of the antimicrobial activities.

bacteria [2] = settings: properties of oxychloro species; cited from earlier work

Compound	time range of antimicrobial impact / longevity (bacteria [1])	Biocidal potency (bacteria [2])
Chlorine dioxide [ClO2]	within seconds	
[O-][Cl+2]([O-])O [ClO3^−, Chlorate ion]		low
[Na+].[O-][Cl+2]([O-])[O-] [sodium chlorate]	weeks to months	
sodium chlorite	hours to days	
